Laboratory results reported in ChEMBL document CHEMBL1201862, “PubChem BioAssay data set” (2004).
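Protocol summary: plate cells (96-well), add compound at 5 concentrations, incubate 48 h, interpolate endpoints linearly. GI50 is the concentration that inhibits growth by half.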 Activity calls are given as the source filed them. Cut-off read from the data, not from the text of the source: active = GI50 up to about 1.1 µM and inactive = higher.

Tests used:
Assay in all cases: DTP human tumour cell line panel, 48 h
ACHN = tested on: ACHN
NCI-H522 = tested on: NCI-H522
M14 = tested on: M14
UACC-62 = tested on: UACC-62
HOP-62 = tested on: HOP-62
UACC-257 = tested on: UACC-257
OVCAR-4 = tested on: OVCAR-4
PC-3 = tested on: PC-3
OVCAR-3 = tested on: OVCAR-3
SK-MEL-28 = tested on: SK-MEL-28
SF-268 = tested on: SF-268
HOP-92 = tested on: HOP-92
A498 = tested on: A498
T47D = tested on: T47D
U-251 = tested on: U-251
Hs-578T = tested on: Hs-578T
HCC 2998 = tested on: HCC 2998
DU-145 = tested on: DU-145

Measured: GI50

COC(=O)C(/C(=N/N)C(=O)Nc1cc(Cl)c(Cl)cc1Cl)c1nc2ccc(Cl)cc2nc1O (stereo not drawn)
inactive: ACHN 44.8 µM | NCI-H522 38.9 µM | M14 > 100 µM | UACC-62 > 100 µM | HOP-62 > 100 µM | UACC-257 > 100 µM | OVCAR-4 2.79 µM | PC-3 > 100 µM | OVCAR-3 95.3 µM | SK-MEL-28 > 100 µM | SF-268 > 100 µM | HOP-92 > 100 µM | A498 > 100 µM | T47D > 100 µM | U-251 > 100 µM | Hs-578T > 100 µM

CCCCCCC1OC23OC1CCC2C(O)CCC3O (stereo not drawn)
inactive: ACHN 97.7 µM | HCC 2998 > 100 µM | NCI-H522 > 100 µM | UACC-62 > 100 µM | HOP-62 > 100 µM | UACC-257 > 100 µM | OVCAR-4 > 100 µM | PC-3 > 100 µM | OVCAR-3 > 100 µM | SK-MEL-28 > 100 µM | SF-268 > 100 µM | A498 > 100 µM | DU-145 > 100 µM | U-251 > 100 µM | Hs-578T > 100 µM

O=C(NCCCCN(CCCNC(=O)C(F)(F)F)Cc1ccc2ccccc2c1)C(F)(F)F
inactive: ACHN 24.3 µM | HCC 2998 13.9 µM | NCI-H522 18.2 µM | M14 16.7 µM | UACC-62 19.1 µM | UACC-257 17.5 µM | OVCAR-4 17.6 µM | SK-MEL-28 16.7 µM | SF-268 16 µM | HOP-92 16.7 µM | A498 20.3 µM | T47D 17.7 µM | DU-145 21 µM | U-251 26.4 µM | Hs-578T 17.7 µM

O=C(Cc1ccccc1)N/N=C(/CCN1CCCC1)CC(c1ccccc1)c1c(O)c2ccccc2oc1=O (stereo not drawn)
inactive: ACHN > 100 µM | HCC 2998 95.1 µM | NCI-H522 59 µM | M14 > 100 µM | UACC-62 63.7 µM | UACC-257 37.2 µM | OVCAR-4 > 100 µM | PC-3 > 100 µM | OVCAR-3 > 100 µM | SK-MEL-28 > 100 µM | SF-268 > 100 µM | HOP-92 31.6 µM | A498 28 µM | DU-145 > 100 µM | U-251 > 100 µM | Hs-578T 76.7 µM

CC1(C)CC(=O)C2=C(C1)NC(SCC(=O)O)=C(C#N)C2c1ccc(Br)cc1 (stereo not drawn)
inactive: ACHN > 100 µM | HCC 2998 > 100 µM | NCI-H522 86.5 µM | M14 > 100 µM | UACC-62 > 100 µM | HOP-62 > 100 µM | UACC-257 > 100 µM | OVCAR-4 > 100 µM | PC-3 > 100 µM | OVCAR-3 > 100 µM | SK-MEL-28 > 100 µM | SF-268 > 100 µM | HOP-92 27.4 µM | A498 > 100 µM | DU-145 > 100 µM | U-251 > 100 µM | Hs-578T > 100 µM

CCN(CC(COc1ccc2c(c1)[n+]([O-])nc(N)[n+]2[O-])OC(C)=O)C(C)=O (stereo not drawn)
inactive: ACHN > 100 µM | NCI-H522 16.4 µM | M14 89.3 µM | UACC-62 29.6 µM | HOP-62 45.9 µM | UACC-257 76.7 µM | OVCAR-4 50.5 µM | PC-3 76.9 µM | OVCAR-3 76.2 µM | SK-MEL-28 > 100 µM | SF-268 56 µM | A498 25.9 µM | T47D 33.9 µM | DU-145 > 10 µM | U-251 > 100 µM | Hs-578T 51.3 µM

CN(C)CC1CCC/C(=C\c2ccc(Cl)c(Cl)c2)C1=O (stereo not drawn)
inactive: ACHN 4.18 µM | HCC 2998 10.7 µM | NCI-H522 2.13 µM | M14 3.83 µM | UACC-62 3.61 µM | HOP-62 9.04 µM | UACC-257 7.71 µM | OVCAR-4 3.05 µM | OVCAR-3 4.31 µM | SK-MEL-28 5.14 µM | SF-268 4.04 µM | HOP-92 4.38 µM | A498 13.9 µM | T47D 2.31 µM | DU-145 10.9 µM | U-251 2.65 µM | Hs-578T 2.99 µM

CC(C)(C)C1CC[C@H](O)[C@H]([C@@H](O)CC2CC(=O)N(c3ccccc3)C(=O)C2)C1 (stereo partly drawn)
inactive: ACHN 69 µM | HCC 2998 27.9 µM | NCI-H522 > 100 µM | M14 43.8 µM | UACC-62 26.6 µM | HOP-62 > 100 µM | UACC-257 89.9 µM | OVCAR-4 57.5 µM | PC-3 91.8 µM | OVCAR-3 50.9 µM | SK-MEL-28 > 100 µM | SF-268 > 100 µM | HOP-92 23.3 µM | A498 > 100 µM | DU-145 55.3 µM | U-251 55.8 µM | Hs-578T > 100 µM

CCOC(=O)c1c(N)sc2c1C(C(=O)OCC)CC2 (stereo not drawn)
inactive: ACHN > 100 µM | HCC 2998 > 100 µM | M14 > 100 µM | UACC-62 91.4 µM | HOP-62 > 100 µM | UACC-257 > 100 µM | PC-3 34.4 µM | SK-MEL-28 > 100 µM | HOP-92 > 100 µM | A498 14.3 µM | T47D 18.2 µM | U-251 73.3 µM | Hs-578T 93.8 µM

O=C1/C(=C\c2cccc(Oc3ccccc3)c2)SC(c2ccccc2)N1c1ccccc1Cl (stereo not drawn)
inactive: ACHN 39.6 µM | HCC 2998 17.5 µM | NCI-H522 13.6 µM | M14 30.8 µM | UACC-62 25.5 µM | HOP-62 28.8 µM | UACC-257 24.5 µM | OVCAR-4 37.1 µM | OVCAR-3 23.7 µM | SK-MEL-28 41.2 µM | SF-268 33 µM | HOP-92 14.6 µM | A498 46.1 µM | T47D 27.7 µM | DU-145 32.9 µM | U-251 16.4 µM | Hs-578T 16.5 µM

CC(C)N1[C@@H]2CCCC[C@H]2N(C(C)C)P1(=O)C(=O)/C=C/c1ccccc1
inactive: ACHN 2.69 µM | HCC 2998 2.18 µM | NCI-H522 1.53 µM | M14 2.02 µM | UACC-62 2.57 µM | HOP-62 3.88 µM | UACC-257 3.08 µM | OVCAR-4 1.67 µM | PC-3 4.18 µM | OVCAR-3 2.38 µM | SK-MEL-28 2.37 µM | SF-268 2.44 µM | HOP-92 1.76 µM | A498 2.75 µM | DU-145 2.08 µM | U-251 4.08 µM | Hs-578T 1.71 µM

Cn1nc(-c2ccccc2NC(=O)C(F)(F)F)c(=O)n(C)c1=S
inactive: ACHN 24.5 µM | HCC 2998 46.1 µM | NCI-H522 19.3 µM | M14 19.8 µM | UACC-62 > 10 µM | HOP-62 69.7 µM | OVCAR-4 19.9 µM | OVCAR-3 18.5 µM | SK-MEL-28 12 µM | SF-268 25.8 µM | HOP-92 15.2 µM | U-251 27 µM

O=C1C2CCCCC2C(=O)N1n1c(Cc2ccccc2)n[nH]c1=O (stereo not drawn)
inactive: ACHN > 100 µM | HCC 2998 > 100 µM | NCI-H522 > 100 µM | M14 > 100 µM | UACC-62 > 100 µM | HOP-62 > 100 µM | UACC-257 > 100 µM | OVCAR-4 > 100 µM | PC-3 > 100 µM | OVCAR-3 > 100 µM | SF-268 > 100 µM | HOP-92 > 100 µM | A498 > 100 µM | T47D > 100 µM | U-251 > 100 µM | Hs-578T > 100 µM

COC(=O)c1sc(=S)sc1SCc1ccccc1CSc1sc(=S)sc1C(=O)OC
inactive: ACHN > 100 µM | HCC 2998 > 100 µM | NCI-H522 > 100 µM | M14 > 100 µM | UACC-62 > 100 µM | HOP-62 85.7 µM | UACC-257 > 100 µM | OVCAR-4 > 100 µM | PC-3 > 100 µM | OVCAR-3 > 100 µM | SK-MEL-28 > 100 µM | SF-268 > 100 µM | HOP-92 > 100 µM | A498 > 100 µM | DU-145 > 100 µM | U-251 > 100 µM | Hs-578T > 100 µM

O=C(N/N=C/c1ccc(Br)cc1)N/N=C/c1ccc(Br)cc1
inactive: ACHN 4.94 µM | HCC 2998 17.3 µM | M14 11.1 µM | UACC-62 12.6 µM | HOP-62 5.56 µM | UACC-257 17.6 µM | OVCAR-4 2.37 µM | PC-3 17.3 µM | OVCAR-3 3.81 µM | SK-MEL-28 12 µM | SF-268 10.4 µM | T47D 4.38 µM | DU-145 9.12 µM | U-251 6.24 µM | Hs-578T 3.78 µM

CC(C)(C)OC(=O)C1CC[C@@H](CC(=O)Oc2ccc([N+](=O)[O-])cc2)N1 (stereo partly drawn)
inactive: ACHN > 100 µM | HCC 2998 > 100 µM | NCI-H522 > 100 µM | M14 > 100 µM | UACC-62 > 100 µM | UACC-257 > 100 µM | OVCAR-4 > 100 µM | PC-3 > 100 µM | OVCAR-3 > 100 µM | SK-MEL-28 > 100 µM | HOP-92 > 100 µM | A498 > 100 µM | DU-145 > 100 µM | U-251 > 100 µM

CC(C)SC(NC(=O)C1C(C)(C)CCC1(C)C)C(=O)O (stereo not drawn)
inactive: ACHN > 100 µM | HCC 2998 > 100 µM | M14 > 100 µM | UACC-62 > 100 µM | HOP-62 > 100 µM | PC-3 > 100 µM | SK-MEL-28 > 100 µM | SF-268 > 100 µM | HOP-92 > 100 µM | A498 > 100 µM | DU-145 > 100 µM | U-251 > 100 µM | Hs-578T > 100 µM
